Experimental data taken from a melting point compilation (Tetko et al.; mined from patent text by program, amines drawn as free bases though some values may be those of a salt).

Compound | melting point [°C]
C=CCCCn1ncc2c(OCC)c(C(=O)OCC)cnc21 | 61 to 62
Cc1noc(C)c1Cn1cc(NC(=O)[C@@H](C)c2ccccc2)cn1 | 108 to 110
CCOC(=O)CCCOc1ccc([N+](=O)[O-])c(C=C2NC(=O)NC2=O)c1 | 131 to 134
NCCc1ccc(Cl)c(Cl)c1CCO | 79 to 80
CC1(C)CC(OC(=O)c2ccccc2)CC(C)(C)N1OP(=O)(c1ccccc1)c1ccccc1 | 169 to 173
CCCCc1oc2ccccc2c1-c1ncc(-c2ccc3cc(OCc4nnn[nH]4)ccc3c2)o1 | 238 to 240
CCOC(=O)C1=C(C)NC(N=CN2CCCCC2)=C(C(=O)OCC)C1c1ccccc1Cl (configuration not stated) | 145
FC(F)(F)c1ccccc1CC[C@H]1CNCCN1 | 43 to 47
CC(=O)Nc1cncc(NC(=NC#N)NC2(c3ccccc3)CCC2)c1 | 207 to 208
CC(C(=O)O)c1ccc2cc(OCCCCCCc3cccc(O)c3O)ccc2c1 (configuration not stated) | 136 to 139
O=C(Nc1cc(CN2CCOCC2)c(O)c(CN2CCOCC2)c1)c1ccccc1 | 152 to 154
CC(C)c1nn(-c2ccccc2)c(-c2ccc(F)cc2)c1CO | 138 to 140
O=CNc1ccc(Br)c(Cl)c1 | 110 to 113
O=C(O)c1cccc(C(=O)O)c1[N+](=O)[O-] | 100 to 101
COC(=O)C(=NOCF)c1ccccc1COc1ccccc1C | 101 to 102
CCCc1cc(=O)oc2cc(O)ccc12 | 135 to 137
CC(C)Oc1cccc(OC(=O)NCc2c(-c3ccccc3)c3cc(Cl)ccc3c(=O)n2C)c1 | 158 to 160
CC(C)c1c(C(=O)N[C@H](C)[C@](O)(Cn2cncn2)c2ccc(F)cc2F)cnn1-c1ccc(Cl)cc1 | 85 to 92
Cn1cc(C(=O)O)c(=O)c2cc(F)c(N3CCNCC3)cc21 | 310
CC(Br)c1cc2ccccc2s1 (configuration not stated) | 53
CC(C)(C)c1ccc(C2(CN)CC2)cc1 | 39 to 41
Cc1cc(OC(=S)N(C)C)c(C(C)(C)C)cc1C=O | 79.5 to 81

Compound | melting point [°C]
Cc1c(CN2CCOCC2)sc2c(Br)c3ccccc3c(-c3cc(Br)c(O)c(Br)c3)c12 | 237 to 240
CCCn1c(COCC)nc2c(N)nc3ccc(OCCCCCCNC(=O)NC(C)C)cc3c21 | 167 to 169
CC(C)(C)OC(=O)N1CCC(n2cc(-c3ccc(Oc4ccccc4)cc3)c3c(N)ncnc32)CC1 | 168 to 170
N#C/C=C/C1CN(C(c2ccccc2)c2ccccc2)C1 | 108 to 110
COc1ccc(C(=O)Cc2c(Cl)cncc2Cl)cc1OC1CCCC1 | 119 to 120
COC(=C(C#N)C(=O)C(C)(C)C)c1ccc(Cl)cc1[N+](=O)[O-] | 130 to 131
O=C(O)c1cnccc1Cc1cc(Cl)ccc1F | 174 to 176
Cc1sc2c(c1C)C(c1ccc(Cl)cc1)=NC(CC(=O)Nc1ccncc1)c1nnc(C)n1-2 (configuration not stated) | 237 to 239
Clc1cc(Cl)cc(-c2nc(-c3ccccn3)no2)c1 | 162 to 166
CN1CCC(OC(c2ccccc2)c2nc3cc(Cl)c(Cl)cc3[nH]2)CC1 (configuration not stated) | 221
O=CC1=C(c2ccc3sccc3c2)N2CCN=C2S1 | 146
COc1ccccc1-n1c(=O)[nH]c2c(C(N)=O)nc(-c3ccc4nc(C)[nH]c4c3)nc21 | 270
COc1cc(C)cc(OC)c1C1=NC(NC(=O)Nc2ccccc2Cl)C(=O)N(C)c2ccccc21 (configuration not stated) | 260
Cc1nc2ccc3cnc(N(C)c4cccc([N+](=O)[O-])c4)nc3c2s1 | 209 to 210
Cc1nn([N+](=O)[O-])cc1-c1ncc([N+](=O)[O-])n1C | 148
CCOC(=O)COc1cccc(C2C(C(=O)OCC)=C(C)NC(C)=C2C(=O)OCC)c1 | 108
O=c1[nH]c(=O)n(COC(CO)CO)cc1Cc1cccc(OCc2ccccc2)c1 | 113
CSc1nn(C)c(=O)n1Cc1cc(-c2ccccc2)ccc1C | 95.6
O=C1C(O)=C(c2ccc3ccccc3c2)C(=O)C(O)=C1c1ccc(Cl)cc1 | 302 to 303
CCNc1cccnc1N1CCN(C(=O)c2ccc(C(=O)NCc3ccccn3)cn2)CC1 | 129 to 131
COCN1C(C)=C(C(=O)OCOC(=O)C(C)(C)C)C(c2cccc([N+](=O)[O-])c2)C(C(=O)OCOC(=O)C(C)(C)C)=C1C | 73 to 74

Next, values leading:

melting point [°C] | Compound
180 to 182 | CCOC(=O)NNC(=O)Nc1c(F)c(F)c(F)c(F)c1F
65 | CCCCCC(=O)N(C)Cc1cc(-c2ccc(C[C@H](OCC)C(=O)O)cc2)cs1
290 | CNc1nc(O)cc(O)n1
233 | Cc1cc(N)nc(CCc2nc3cc(-c4ccc(S(=O)(=O)N5CCCCC5)cc4)cnc3[nH]2)c1
86 | CC(C)C[C@@H](O)CC(=O)O
140 to 142 | OCC(CCNC1CCC(c2ccc(OCc3ccccc3)cc2)CC1)c1ccccc1 (racemic)
145 to 147 | Cc1[nH]c(C(=O)Nc2ccc3c(c2)OCCO3)c(C)c1-c1nc2ccc(C(=O)c3ccccc3)cc2[nH]1
189 to 190 | N#CC1=C(C#N)N=CCC=N1
142 to 143 | CN(C)C(=S)SSCCSSC(=S)N(C)C
108 to 111 | CCCOc1ccc(S)cc1C(N)=O
46 to 47 | CCCCCCCCCCCCCCCc1ccc(C(=O)c2ccccc2)c(O)c1
211 | CN1N=C(c2ccccc2)CC1=O
164 to 166 | COc1ccc(S(=O)(=O)N2CCC[C@H]2C(=O)NO)cc1
56 to 57 | CC1=CC=C[C@@H](O)[C@H]1O
55 to 60 | CCCCOc1ccc(CC(CC(=O)NO)S(=O)(=O)c2ccc(OC)cc2)cc1 (configuration not stated)
217 to 218 | CCCCNC(=O)NC(Cc1ccccc1)C(=O)Nc1c(F)cc(F)cc1F (configuration not stated)
257 to 259 | COc1ccc(C(=O)c2c[nH]c(=O)[nH]2)cc1OC
115 | COC(=O)C(Cc1ccc(Cl)cc1Cl)c1c(Cl)cccc1Cl (configuration not stated)
215 | CCc1c(C(=O)O)nn(-c2ccc(Cl)cc2Cl)c1-c1ccc(Cl)cc1
> 300 | O=c1ccc2c(-c3ccc(O)cc3)nccc2[nH]1

melting point [°C] | Compound
103 to 104 | Cc1ccccc1-c1nc(Cl)c2ccccc2n1
247 to 249 | O=C(O)c1ccc(-c2ccc3c(c2)CCN(CCN2CCCC2)C3=O)cc1
204 to 205 | CCc1c(OC)nc2nc(-c3nc(C)no3)cn2c1C
178 to 180 | Cc1cccc2c(C(=O)O)c(O)c(-c3ccc(-c4ccccc4)cc3)nc12
219 to 220 | CC(C)(C)OC(=O)N1CCN(c2ccc3[nH]c(S)nc3c2)CC1
178 to 179 | Cc1cccc(NC(N)=S)c1N1CCOCC1
190 | CCn1ncnc1COc1nn2c(-c3ccc(F)cc3)nncc2c1C(C)(C)C
125 | CNCCCN(C)C(=O)[C@@H]1CCCN1S(=O)(=O)c1ccc(Cl)c(COc2cccc3c(-n4ccnc4)cc(C)nc23)c1Cl
57 to 58 | CCCc1nc(-c2ccc(OCCCn3ccnc3)cc2)no1
> 250 | COCCOc1ccc2c(=O)c(C#N)c[nH]c2c1
172 to 173 | CN(c1cccc2cc(C3=NCC(C)(CN4CCC5(CC4)OCCO5)S3)[nH]c12)S(=O)(=O)c1cccs1 (configuration not stated)
22 | OCCCCOCCCCOCCCCOCCCCO
111 | CCOC(=O)C1=C(C)NN=C(CC)C1c1ccc(Cl)cc1 (configuration not stated)
> 340 | CN1C(C)(C)CC(Nc2c([O-])[c+](NC3CC(C)(C)N(C)C(C)(C)C3)[c+]2[O-])CC1(C)C
105 to 107 | CC1(CN2CCN(C(=O)OCc3ccc(C(=O)c4ccccc4)cc3)CC2)Cn2cc([N+](=O)[O-])nc2O1 (configuration not stated)
212 to 215 | CC(C)(C)c1cc(OCc2ccc(C(=O)O)cc2)cc(C(C)(C)C)c1
139 to 140 | C[C@@H]1CN(C(=O)OC(C)(C)C)C[C@H]2Cc3cc(F)c(C=O)nc3N21
128 | CC(C)(C)OC(=O)NCc1ccc(CNC(=O)N2CCN(C(=O)OCc3ccccc3)CC2)cc1
134 to 137 | CN1CCN(C(=O)Nc2ccccc2CCc2cc(C(C)(C)C)c(O)c(C(C)(C)C)c2)CC1
186 to 187 | NS(=O)(=O)c1ccccc1C(=S)N1CCCC1

melting point [°C] | Compound
306 to 307 | COc1cc2cc(C(=O)O)sc(=O)c2cc1OC
218 to 220 | O=C(Nc1cc2ccccc2cn1)c1cncnc1NCc1ccncc1
145 | OCCc1ccc(OCc2ccc3ccccc3n2)cc1
150 to 151 | Oc1cccc(-c2nn(C3CCCC3)c3c(Cl)cccc23)c1F
164 to 165 | Cc1nc2ccccc2c(=O)n1CCN1CCC(c2noc3cc(F)ccc23)CC1
148 to 150 | CCOC(=O)c1cnc2c(c(C)nn2-c2ccccc2)c1N(Cc1cccnc1)S(=O)(=O)c1ccc(OC)cc1
86 to 89 | CC(CO)c1ccc(O)c(Cc2ccccc2O)c1 (configuration not stated)
201 to 203 | CN(C)CCNc1nc(C(=O)Nc2nc3ccc(C#N)cc3s2)cs1
132 to 135 | CC(C)(C)[C@H]1CC[C@H](CCC(=O)N2C(=O)OC[C@@H]2Cc2ccccc2)CC1
53 to 55 | COc1ccc(C)c([N+](=O)[O-])c1C
141 to 142 | O=C(c1ccc([N+](=O)[O-])cc1)N1CCCCc2sccc21
136 to 138 | CN1CCN(CCCOc2ccccc2Nc2nc(C#N)nc3c2ncn3C2CCCC2)CC1
112 to 114 | N#CC=C1CCN(c2ccc(N3C[C@@H](CN=[N+]=[N-])OC3=O)cc2F)CC1
97 to 98 | Clc1c2ccccc2nc2c1cnn2C1CCCC1
139 to 140 | CNCC(=O)N1CC(c2ccc(Cl)cc2)Sc2ccccc21 (configuration not stated)
170 | O=C(N1CCCC(c2cccc3[nH]ccc23)C1)C(F)(F)F (configuration not stated)
166 to 167 | CCCn1c2c(c3ccccc3c1=O)C(=O)c1ccccc1-2
> 250 | N#Cc1cnc2cc(F)ccc2c1O
125 to 127 | CC1=C(C(=O)OCCO)C(c2ccccc2C(F)(F)F)C(C(=O)OCCO)=C(C)N1
